# Laboratory results published in patent publication US7977325B2, “3-amino-pyrazolo[3,4b]pyridines as inhibitors of protein tyrosine kinases, their production and use as pharmaceutical agents” (Bayer Schering Pharma AG, priority 2004, dated 2011).
# Target: T1, recombinant EphB4 kinase (Homo sapiens, UniProt P54760)
# T1 construct: purchased ProQinase GmbH, Freiburg, Germany
# T1 sequence (P54760 16-987): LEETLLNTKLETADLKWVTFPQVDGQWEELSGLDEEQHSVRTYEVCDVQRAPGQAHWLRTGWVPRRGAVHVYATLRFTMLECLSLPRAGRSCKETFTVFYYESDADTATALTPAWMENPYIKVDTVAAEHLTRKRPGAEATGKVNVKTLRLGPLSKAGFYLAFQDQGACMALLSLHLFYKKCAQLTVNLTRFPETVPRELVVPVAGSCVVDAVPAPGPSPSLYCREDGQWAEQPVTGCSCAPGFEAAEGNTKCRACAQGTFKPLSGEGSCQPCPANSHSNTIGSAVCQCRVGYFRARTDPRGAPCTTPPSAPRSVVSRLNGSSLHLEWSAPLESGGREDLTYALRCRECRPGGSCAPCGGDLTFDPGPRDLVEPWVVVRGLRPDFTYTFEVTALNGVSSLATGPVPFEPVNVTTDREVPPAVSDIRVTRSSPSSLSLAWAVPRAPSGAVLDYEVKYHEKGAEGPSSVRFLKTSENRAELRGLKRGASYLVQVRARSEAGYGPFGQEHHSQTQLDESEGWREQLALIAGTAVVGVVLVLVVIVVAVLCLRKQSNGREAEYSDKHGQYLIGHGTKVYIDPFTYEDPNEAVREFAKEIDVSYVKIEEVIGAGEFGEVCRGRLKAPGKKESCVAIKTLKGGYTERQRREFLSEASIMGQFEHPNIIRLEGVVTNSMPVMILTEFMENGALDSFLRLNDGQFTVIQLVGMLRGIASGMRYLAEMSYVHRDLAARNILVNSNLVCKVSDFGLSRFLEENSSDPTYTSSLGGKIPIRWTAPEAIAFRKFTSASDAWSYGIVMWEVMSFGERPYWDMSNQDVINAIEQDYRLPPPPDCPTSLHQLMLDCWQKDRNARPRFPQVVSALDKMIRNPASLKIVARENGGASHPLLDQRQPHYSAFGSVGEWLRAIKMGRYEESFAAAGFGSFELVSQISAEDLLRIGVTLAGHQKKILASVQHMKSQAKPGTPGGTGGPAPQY
# Test: Test System for EphB4 (HTRF kinase assay)
# Assay type: biochemical
# Conditions: polyGluAlaTyr substrate, 2 μmol of ATP, read-out: IC50 of EphB4 kinase inhibition
# Experimental: A mixture that consists of 20 ng/ml of recombinant EphB4 kinase (related to ProQinase GmbH, Freiburg, Germany), 2.67 μg/ml of polyGluAlaTyr, 2 μmol of ATP, 25 mmol of HEPES (pH 7.3), 5 mmol of MgCl2, 1 mmol of MnCl2, 2 mmol of DTT, 0.1 mmol of NaVO4, 1% (v/v) glycerol, 0.02% NP40, EDTA-free protease inhibitors (Complete Fa. [Company] Roche, 1 tablet in 50 ml) is incubated at 20° C. for 10 minutes. Test substances are dissolved in 100% DMSO and introduced in 0.017× volume before the beginning of the reaction. 60 minutes after the addition of 1.7× volume of a solution of 50 mmol of Hepes, pH 7.0, 0.2% BSA, 0.14 μg/ml of PT66-europium, 3.84 μg/ml of SA-XL665, and 75 mmol of EDTA, the batch is measured in a Discovery HTRF-measuring device of the PerkinElmer Company.
row,IC50 [µM],SMILES
1,6.1,"COc1cccc(-c2cc(C(C)(C)C)nc3[nH]nc(N)c23)c1 [Example 6, 6-tert-Butyl-4-(3-methoxyphenyl)-1H-pyrazolo[3,4b]pyridin-3-ylamine]"

# Same assay, conditions: polyGluAlaTyr substrate, 2 μmol of ATP, read-out: IC50 of EphB4 kinase inhibition (stated as upper bound)
row,SMILES,IC50 [µM]
1,"COc1cccc(-c2cc(C(C)(C)C)nc3[nH]nc(N)c23)c1 [Example 6, 6-tert-Butyl-4-(3-methoxyphenyl)-1H-pyrazolo[3,4b]pyridin-3-ylamine]",< 10
2,"Cc1ccc(O)cc1-c1cc(-c2ccncc2)nc2[nH]nc(N)c12 [Example 35, 3-(3-Amino-6-pyridin-4-yl-1H-pyrazolo[3,4-b]pyridin-4-yl)-4-methyl-phenol]",< 10
3,"Cc1ccc(-c2cc(C3CCC(N4CCNCC4)CC3)nc3[nH]nc(N)c23)cc1 (centres unmarked) [Example 14, 6-(4-piperazin-1-yl-cyclohexyl)-4-p-tolyl-1H-pyrazolo[3,4b]pyridin-3-ylamine]",< 10
4,"COc1cc(O)cc(-c2cc(-c3ccncc3)nc3[nH]nc(N)c23)c1 [Example 33, 3-(3-Amino-6-pyridin-4-yl-1H-pyrazolo[3,4-b]pyridin-4-yl)-5-methoxyphenol]",< 10
5,"COc1cc(OC)cc(-c2cc(C(C)(C)C)nc3[nH]nc(N)c23)c1 [Example 39, 6-tert-Butyl-4-(3,5-dimethoxyphenyl)-1H-pyrazolo[3,4-b]pyridin-3-ylamine]",< 10
6,"Cc1ccc(-c2cc(C3CCC(N4CCCCC4)CC3)nc3[nH]nc(N)c23)cc1 (centres unmarked) [Example 16, 6-(4-Piperidin-1-yl-cyclohexyl)-4-p-tolyl-1H-pyrazolo[3,4b]pyridin-3-ylamine]",< 10
7,"Cc1ccc(-c2cc(C3CCC(=O)CC3)nc3[nH]nc(N)c23)cc1 [Example 12, 4-(3-Amino-4-p-tolyl-1H-pyrazolo[3,4b]pyridin-6-yl)-cyclohexanone]",< 10

# More lines, now with the values ahead:
row,IC50 [µM],SMILES
1,< 10,"CC(C)(C)c1cc(-c2cc(O)ccc2[N+](=O)[O-])c2c(N)n[nH]c2n1 [Example 41, 3-(3-Amino-6-tert-butyl-1H-pyrazolo[3,4b]pyridin-4-yl)-4-nitro-phenol]"
2,< 10,CC(C)Oc1cc(O)cc(-c2cc(C(C)(C)C)nc3[nH]nc(N)c23)c1 [Example 40]
3,< 10,"Nc1n[nH]c2nc(C3CC3)cc(-c3ccc(Cl)c(Cl)c3)c12 [Example 51, 6-Cyclopropyl-4-(3,4-dichlorophenyl)-1H-pyrazolo[3,4-b]pyridin-3-ylamine]"
